According to patent US20160083357A1, “NOVEL TETRAZOLONE DERIVATIVES” (Hoffmann-La Roche Inc., priority 2013, published 2016):
Like-named read-outs stand apart in the source and are kept apart here.

Tests used:
[1] = target: T1, human CB1 receptors (Homo sapiens, UniProt P21554); test: cAMP assay, human CB1; type: cell-based
T1 construct: expressed in transfected cells; host or cells: CHO cells
Outline: (§1)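 CHO cells expressing human CB1 or CB2, preincubated in Krebs Ringer bicarbonate with 1 mM IBMX, then compound for 30 min at 30° C. cAMP quantified by time-resolved FRET (cAMP-Nano-TRF) against a cAMP standard curve; EC50 values derived.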

[2] = target: T2, human CB2 receptors (Homo sapiens, UniProt P34972); test: cAMP assay, human CB2; type: cell-based
T2 construct: expressed in transfected cells; host or cells: CHO cells
T2 sequence (P34972 whole entry): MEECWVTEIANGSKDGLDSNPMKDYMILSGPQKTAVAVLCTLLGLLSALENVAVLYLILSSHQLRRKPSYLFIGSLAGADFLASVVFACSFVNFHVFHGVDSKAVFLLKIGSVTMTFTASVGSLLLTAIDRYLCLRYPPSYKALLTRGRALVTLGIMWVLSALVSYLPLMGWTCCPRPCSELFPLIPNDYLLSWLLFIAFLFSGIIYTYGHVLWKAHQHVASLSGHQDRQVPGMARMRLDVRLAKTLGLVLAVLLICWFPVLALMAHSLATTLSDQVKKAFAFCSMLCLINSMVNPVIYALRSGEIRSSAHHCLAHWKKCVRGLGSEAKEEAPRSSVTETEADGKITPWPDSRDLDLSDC
Outline: as §1

[3] = functional cAMP assay, CHO cells expressing human CB1, read-out: Ec50: CB1 - hu cAMP
[4] = functional cAMP assay, CHO cells expressing human CB2, read-out: Ec50: CB2 - hu cAMP

T1 sequence (P21554 whole entry): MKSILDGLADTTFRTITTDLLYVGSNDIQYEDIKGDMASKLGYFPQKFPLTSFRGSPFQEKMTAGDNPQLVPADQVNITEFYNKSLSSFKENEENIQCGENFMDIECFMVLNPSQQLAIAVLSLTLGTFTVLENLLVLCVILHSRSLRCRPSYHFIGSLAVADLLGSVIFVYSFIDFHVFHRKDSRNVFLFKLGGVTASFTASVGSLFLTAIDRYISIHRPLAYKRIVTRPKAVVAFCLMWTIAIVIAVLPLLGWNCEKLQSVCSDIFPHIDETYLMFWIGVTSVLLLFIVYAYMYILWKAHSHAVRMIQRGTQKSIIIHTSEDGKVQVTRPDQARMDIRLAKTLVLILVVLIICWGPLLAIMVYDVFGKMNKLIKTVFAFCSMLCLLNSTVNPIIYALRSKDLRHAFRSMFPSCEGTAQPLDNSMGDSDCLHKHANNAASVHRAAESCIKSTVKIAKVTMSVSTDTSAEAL

SMILES	EC50 [1, 3] [nM]	EC50 [2, 4] [nM]	EC50 [1] [nM]	EC50 [2] [nM]
Cn1ccc(C2CCCN2C(=O)n2nnn(-c3cccc(F)c3)c2=O)n1 (centres unmarked) [Example 19, 1-(3-Fluoro-phenyl)-4-[2-(1-methyl-1H-pyrazol-3-yl)-pyrrolidine-1-carbonyl]-1,4-dihydro-tetrazol-5-one]	> 10000	25	–	–
CCNC(=O)CN1CCN(C(=O)n2nnn(-c3cccc(OC(F)(F)F)c3)c2=O)CC1 [Example 105, N-Ethyl-2-{4-[5-oxo-4-(3-trifluoromethoxy-phenyl)-4,5-dihydro-tetrazole-1-carbonyl]-piperazin-1-yl}-acetamide]	> 10000	20.1	–	–
O=C(N1CCc2cc(F)ccc2C1)n1nnn(-c2cccc(F)c2)c1=O [Example 11, 1-(6-Fluoro-3,4-dihydro-1H-isoquinoline-2-carbonyl)-4-(3-fluoro-phenyl)-1,4-dihydro-tetrazol-5-one]	> 10000	78.9	–	–
COCCN(C(=O)n1nnn(-c2cccc(Cl)c2)c1=O)C(C)C [Example 83, 4-(3-Chloro-phenyl)-5-oxo-4,5-dihydro-tetrazole-1-carboxylic acid isopropyl-(2-methoxy-ethyl)-amide]	–	–	> 10000	5.3
CN(CCc1ccccc1)C(=O)n1nnn(-c2cccc(F)c2)c1=O [Example 5, 4-(3-Fluoro-phenyl)-5-oxo-4,5-dihydro-tetrazole-1-carboxylic acid methyl-phenethyl-amide]	> 10000	0.8	–	–
COCCN(CCOC)C(=O)n1nnn(-c2cccc(F)c2)c1=O [Example 57, 4-(3-Fluoro-phenyl)-5-oxo-4,5-dihydro-tetrazole-1-carboxylic acid bis-(2-methoxy-ethyl)-amide]	> 10000	8.5	–	–
O=C(N1CCCC1c1ccc(F)cc1)n1nnn(-c2cccc(F)c2)c1=O (centres unmarked) [Example 10, 1-(3-Fluoro-phenyl)-4-[2-(4-fluoro-phenyl)-pyrrolidine-1-carbonyl]-1,4-dihydro-tetrazol-5-one]	> 10000	5.9	–	–
CCNC(=O)CN1CCN(C(=O)n2nnn(-c3cccc(Cl)c3)c2=O)CC1 [Example 104, 2-{4-[4-(3-Chloro-phenyl)-5-oxo-4,5-dihydro-tetrazole-1-carbonyl]-piperazin-1-yl}-N-ethyl-acetamide]	> 10000	12.7	–	–
Cc1ccc(-n2nnn(C(=O)N3CCOCC3)c2=O)cc1 [Example 128, 1-(4-methylphenyl)-4-(morpholine-4-carbonyl)tetrazol-5-one]	> 10000	6.6	–	–
CCOCCN(C)C(=O)n1nnn(-c2cccc(OC(F)(F)F)c2)c1=O [Example 112, 5-Oxo-4-(3-trifluoromethoxy-phenyl)-4,5-dihydro-tetrazole-1-carboxylic acid (2-ethoxy-ethyl)-methyl-amide]	–	–	> 10000	4.1
CC1CN(C(=O)n2nnn(-c3cccc(Cl)c3)c2=O)CC(C)O1 (centres unmarked) [Example 137, 1-(3-chlorophenyl)-4-(2,6-dimethylmorpholine-4-carbonyl)tetrazol-5-one]	> 10000	130	–	–
CC1(C)CCN(C(=O)n2nnn(-c3cccc(Cl)c3)c2=O)C1 [Example 138, 1-(3-chlorophenyl)-4-(3,3-dimethylpyrrolidine-1-carbonyl)tetrazol-5-one]	> 10000	5	–	–
CC(=O)N[C@H]1CCN(C(=O)n2nnn(-c3ccc(Cl)cc3)c2=O)C1 [Example 70, N—{(S)-1-[4-(4-Chloro-phenyl)-5-oxo-4,5-dihydro-tetrazole-1-carbonyl]-pyrrolidin-3-yl}-acetamide]	> 10000	32.1	–	–

Now from value to compound, other results behind:

EC50 [1, 3] [nM]	EC50 [2, 4] [nM]	SMILES	EC50 [1] [nM]	EC50 [2] [nM]
> 10000	8.4	Cc1cccc(-n2nnn(C(=O)N3CCOCC3)c2=O)c1 [Example 127, 1-(3-methylphenyl)-4-(morpholine-4-carbonyl)tetrazol-5-one]	–	–
> 10000	7	O=C(N1CCOCC1)n1nnn(-c2cccc(Br)c2)c1=O [Example 135, 1-(3-bromophenyl)-4-(morpholine-4-carbonyl)tetrazol-5-one]	–	–
> 10000	2.5	O=C(N1CCC2(CCOC2)CC1)n1nnn(-c2cccc(F)c2)c1=O [Example 64, 1-(3-Fluoro-phenyl)-4-(2-oxa-8-aza-spiro[4.5]decane-8-carbonyl)-1,4-dihydro-tetrazol-5-one]	–	–
> 10000	9.1	COc1cccc(-n2nnn(C(=O)N3CCOCC3)c2=O)c1 [Example 129, 1-(3-methoxyphenyl)-4-(morpholine-4-carbonyl)tetrazol-5-one]	–	–
> 10000	1.3	COCC1CCN(C(=O)n2nnn(-c3cccc(F)c3)c2=O)CC1 [Example 60, 1-(3-Fluoro-phenyl)-4-(4-methoxymethyl-piperidine-1-carbonyl)-1,4-dihydro-tetrazol-5-one]	–	–
> 10000	9.2	O=C(N1CCOCC1)n1nnn(-c2cccc(C(F)(F)F)c2)c1=O [Example 120, 1-(morpholine-4-carbonyl)-4-[3-(trifluoromethyl)phenyl]tetrazol-5-one]	–	–
> 10000	41.6	O=C(N1CCS(=O)(=O)CC1)n1nnn(-c2cccc(F)c2)c1=O [Example 29, 1-(1,1-Dioxo-1λ6-thiomorpholine-4-carbonyl)-4-(3-fluoro-phenyl)-1,4-dihydro-tetrazol-5-one]	–	–
> 10000	1.8	CC1(C)CCCN(C(=O)n2nnn(-c3cccc(F)c3)c2=O)C1 [Example 63, 1-(3,3-Dimethyl-piperidine-1-carbonyl)-4-(3-fluoro-phenyl)-1,4-dihydro-tetrazol-5-one]	–	–
> 10000	92	CC(=O)N1CCN(C(=O)n2nnn(-c3cccc(F)c3)c2=O)CC1 [Example 38, 1-(4-Acetyl-piperazine-1-carbonyl)-4-(3-fluoro-phenyl)-1,4-dihydro-tetrazol-5-one]	–	–
> 10000	6.9	Cc1cc(C2CCCN2C(=O)n2nnn(-c3cccc(F)c3)c2=O)on1 (centres unmarked) [Example 20, 1-(3-Fluoro-phenyl)-4-[2-(3-methyl-isoxazol-5-yl)-pyrrolidine-1-carbonyl]-1,4-dihydro-tetrazol-5-one]	–	–
> 10000	6.8	N#CC1CCN(C(=O)n2nnn(-c3cccc(F)c3)c2=O)CC1 [Example 61, 1-[4-(3-Fluoro-phenyl)-5-oxo-4,5-dihydro-tetrazole-1-carbonyl]-piperidine-4-carbonitrile]	–	–
> 10000	26	Cc1noc(C2CCCN2C(=O)n2nnn(-c3cccc(F)c3)c2=O)n1 (centres unmarked) [Example 25, 1-(3-Fluoro-phenyl)-4-[2-(3-methyl-[1,2,4]oxadiazol-5-yl)-pyrrolidine-1-carbonyl]-1,4-dihydro-tetrazol-5-one]	–	–
> 10000	122	COC(=O)C1CN(C(=O)n2nnn(-c3cccc(F)c3)c2=O)C1 [Example 24, 1-[4-(3-Fluoro-phenyl)-5-oxo-4,5-dihydro-tetrazole-1-carbonyl]-azetidine-3-carboxylic acid methyl ester]	–	–
> 10000	166	N#CCCN(C(=O)n1nnn(-c2cccc(F)c2)c1=O)C1CC1 [Example 31, 4-(3-Fluoro-phenyl)-5-oxo-4,5-dihydro-tetrazole-1-carboxylic acid (2-cyano-ethyl)-cyclopropyl-amide]	–	–
> 10000	797	O=C(N1CCC(F)(F)C1)n1nnn(-c2cccc(F)c2)c1=O [Example 45, 1-(3,3-Difluoro-pyrrolidine-1-carbonyl)-4-(3-fluoro-phenyl)-1,4-dihydro-tetrazol-5-one]	–	–
